Test results from the NIST ThermoML archive (doi:10.1007/s10765-005-5566-6).
± gives the expanded uncertainty stated by the source.

Experiment: xn = mol fraction of the nth substance listed
Details: Gas, Hot wire method

C [methane] + O=C=O
Details	thermal conductivity [W/m/K]
300 K, 724 kPa, x1 = 0.2493	0.02096 ± 0.00039
300 K, 727 kPa, x1 = 0.4994	0.02533 ± 0.00046
300 K, 730 kPa, x1 = 0.7496	0.03005 ± 0.00053
300 K, 1240 kPa, x1 = 0.7496	0.03027 ± 0.00054
300 K, 1241 kPa, x1 = 0.4994	0.02556 ± 0.00046
300 K, 1288 kPa, x1 = 0.2493	0.02125 ± 0.00039
300 K, 1748 kPa, x1 = 0.4994	0.02584 ± 0.00047
300 K, 1770 kPa, x1 = 0.7496	0.03051 ± 0.00054
300 K, 1835 kPa, x1 = 0.2493	0.02161 ± 0.0004
300 K, 2212 kPa, x1 = 0.4994	0.02613 ± 0.00047
300 K, 2245 kPa, x1 = 0.7496	0.03082 ± 0.00055
300 K, 2335 kPa, x1 = 0.2493	0.02197 ± 0.00041
300 K, 2700 kPa, x1 = 0.4994	0.02637 ± 0.00048
300 K, 2740 kPa, x1 = 0.7496	0.03109 ± 0.00055
300 K, 2820 kPa, x1 = 0.2493	0.02245 ± 0.00041
300 K, 3118 kPa, x1 = 0.4994	0.02681 ± 0.00048
300 K, 3220 kPa, x1 = 0.7496	0.03153 ± 0.00056
300 K, 3275 kPa, x1 = 0.2493	0.02287 ± 0.00042
300 K, 3550 kPa, x1 = 0.4994	0.02726 ± 0.00049
300 K, 3680 kPa, x1 = 0.7496	0.03188 ± 0.00057
300 K, 3730 kPa, x1 = 0.2493	0.02338 ± 0.00043
300 K, 4160 kPa, x1 = 0.2493	0.02399 ± 0.00044
300 K, 4160 kPa, x1 = 0.7496	0.03236 ± 0.00057
300 K, 4550 kPa, x1 = 0.2493	0.02452 ± 0.00045
300 K, 4560 kPa, x1 = 0.7496	0.03271 ± 0.00058
300 K, 4660 kPa, x1 = 0.4994	0.02839 ± 0.00051
300 K, 4920 kPa, x1 = 0.2493	0.0252 ± 0.00046
300 K, 5000 kPa, x1 = 0.7496	0.03324 ± 0.00059
300 K, 5670 kPa, x1 = 0.4994	0.02959 ± 0.00053
300 K, 6570 kPa, x1 = 0.4994	0.03101 ± 0.00056
325 K, 793 kPa, x1 = 0.2493	0.0234 ± 0.00043
325 K, 797 kPa, x1 = 0.7496	0.03345 ± 0.00059
325 K, 800 kPa, x1 = 0.4994	0.02831 ± 0.0005
325 K, 1350 kPa, x1 = 0.4994	0.02846 ± 0.00051
325 K, 1358 kPa, x1 = 0.7496	0.03366 ± 0.00059
325 K, 1420 kPa, x1 = 0.2493	0.02367 ± 0.00043
325 K, 1896 kPa, x1 = 0.4994	0.02871 ± 0.00051
325 K, 1920 kPa, x1 = 0.7496	0.0339 ± 0.0006
325 K, 2020 kPa, x1 = 0.2493	0.02398 ± 0.00044
325 K, 2434 kPa, x1 = 0.4994	0.02901 ± 0.00052
325 K, 2465 kPa, x1 = 0.7496	0.0342 ± 0.0006
325 K, 2600 kPa, x1 = 0.2493	0.02439 ± 0.00044
325 K, 2970 kPa, x1 = 0.4994	0.02933 ± 0.00052
325 K, 3020 kPa, x1 = 0.7496	0.0345 ± 0.00061
325 K, 3160 kPa, x1 = 0.2493	0.02478 ± 0.00045
325 K, 3440 kPa, x1 = 0.4994	0.02963 ± 0.00053
325 K, 3520 kPa, x1 = 0.7496	0.03477 ± 0.00061
325 K, 3685 kPa, x1 = 0.2493	0.02519 ± 0.00046
325 K, 3920 kPa, x1 = 0.4994	0.02999 ± 0.00054
325 K, 4040 kPa, x1 = 0.7496	0.03529 ± 0.00062
325 K, 4210 kPa, x1 = 0.2493	0.02561 ± 0.00047
325 K, 4555 kPa, x1 = 0.7496	0.03559 ± 0.00063
325 K, 4690 kPa, x1 = 0.2493	0.02615 ± 0.00048
325 K, 5040 kPa, x1 = 0.7496	0.03603 ± 0.00064
325 K, 5170 kPa, x1 = 0.2493	0.02675 ± 0.00049
325 K, 5200 kPa, x1 = 0.4994	0.03111 ± 0.00056
325 K, 5560 kPa, x1 = 0.7496	0.03638 ± 0.00064
325 K, 5625 kPa, x1 = 0.2493	0.02733 ± 0.0005
325 K, 6380 kPa, x1 = 0.4994	0.03222 ± 0.00058
325 K, 7500 kPa, x1 = 0.4994	0.03379 ± 0.0006
350 K, 860 kPa, x1 = 0.2493	0.026 ± 0.00047
350 K, 862 kPa, x1 = 0.7496	0.03707 ± 0.00064
350 K, 865 kPa, x1 = 0.4994	0.03135 ± 0.00055
350 K, 1310 kPa, x1 = 0.2493	0.02615 ± 0.00047
350 K, 1464 kPa, x1 = 0.4994	0.03154 ± 0.00056
350 K, 1605 kPa, x1 = 0.7496	0.03738 ± 0.00065
350 K, 1750 kPa, x1 = 0.2493	0.02631 ± 0.00047
350 K, 2054 kPa, x1 = 0.4994	0.03177 ± 0.00056
350 K, 2180 kPa, x1 = 0.2493	0.02656 ± 0.00048
350 K, 2340 kPa, x1 = 0.7496	0.03766 ± 0.00066
350 K, 2610 kPa, x1 = 0.2493	0.02669 ± 0.00048
350 K, 2660 kPa, x1 = 0.4994	0.03206 ± 0.00057
350 K, 3020 kPa, x1 = 0.2493	0.02694 ± 0.00049
350 K, 3035 kPa, x1 = 0.7496	0.03796 ± 0.00066
350 K, 3190 kPa, x1 = 0.4994	0.03224 ± 0.00057
350 K, 3440 kPa, x1 = 0.2493	0.02718 ± 0.00049
350 K, 3740 kPa, x1 = 0.7496	0.03813 ± 0.00067
350 K, 3760 kPa, x1 = 0.4994	0.03258 ± 0.00058
350 K, 3840 kPa, x1 = 0.2493	0.02747 ± 0.0005
350 K, 4220 kPa, x1 = 0.2493	0.02766 ± 0.0005
350 K, 4324 kPa, x1 = 0.4994	0.03282 ± 0.00058
350 K, 4410 kPa, x1 = 0.7496	0.03855 ± 0.00068
350 K, 4600 kPa, x1 = 0.2493	0.02799 ± 0.0005
350 K, 5140 kPa, x1 = 0.7496	0.039 ± 0.00068
350 K, 5145 kPa, x1 = 0.4994	0.03347 ± 0.00059
350 K, 5860 kPa, x1 = 0.7496	0.03958 ± 0.00069
350 K, 5920 kPa, x1 = 0.4994	0.03401 ± 0.0006
350 K, 6410 kPa, x1 = 0.7496	0.03989 ± 0.0007
350 K, 6670 kPa, x1 = 0.4994	0.03477 ± 0.00062
350 K, 7080 kPa, x1 = 0.7496	0.04053 ± 0.00071
